Target: T1, human recombinant HDAC1 (Homo sapiens, UniProt Q13547)
T1 construct: purchased Enzo Life Science, Inc. BML-SE456
Assay: HDAC1 enzyme activity inhibition (HDAC Fluorimetric Drug Discovery Kit)
Assay type: biochemical
Settings: human recombinant HDAC1, Fluor de Lys substrate, 30° C. 60 minutes; read-out: HDAC1
Protocol: An experiment was conducted to identify the selectivity of the compound represented by formula I of the present invention to HDAC6 through an experiment on HDAC1 and HDAC6 enzyme activity inhibition.
A 5-fold dilution of the compound was divided into a 96-well plate, after which […] of the enzyme and 10 μM of the substrate were inserted into each well and subjected to reaction at 30° C. for 60 minutes, such that Fluor de Lys® Developer II (BML-KI176) was inserted thereinto and subjected to reaction for 30 minutes and finished.

T1 sequence (Q13547 whole entry): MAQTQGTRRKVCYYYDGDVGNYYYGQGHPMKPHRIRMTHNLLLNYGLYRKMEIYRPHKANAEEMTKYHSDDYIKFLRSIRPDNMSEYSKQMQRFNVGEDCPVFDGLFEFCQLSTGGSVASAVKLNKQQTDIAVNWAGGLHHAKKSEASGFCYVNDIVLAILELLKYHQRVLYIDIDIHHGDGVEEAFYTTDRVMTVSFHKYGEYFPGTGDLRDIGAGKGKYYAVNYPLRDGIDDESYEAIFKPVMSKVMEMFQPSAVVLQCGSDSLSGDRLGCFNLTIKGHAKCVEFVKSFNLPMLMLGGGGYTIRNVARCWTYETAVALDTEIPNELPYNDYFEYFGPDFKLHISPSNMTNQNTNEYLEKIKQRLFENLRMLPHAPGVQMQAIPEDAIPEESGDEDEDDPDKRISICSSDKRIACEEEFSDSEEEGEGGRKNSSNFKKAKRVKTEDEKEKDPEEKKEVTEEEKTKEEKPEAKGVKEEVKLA

| SMILES | IC50 [µM] |
| --- | --- |
| CC(C)N1Cc2ccc(-c3cn(Cc4ccc(-c5nnc(C(F)F)o5)cc4F)nn3)cc2C1 [Compound 4517, 2-(difluoromethyl)-5-(3-fluoro-4-((4-(2-isopropylisoindolin-5-yl)-1H-1,2,3-triazol-1-yl)methyl)phenyl)-1,3,4-oxadiazole] | > 50 |
| CN(C)Cc1ccc(-c2cn(Cc3ccc(-c4nnc(C(F)F)o4)cc3F)nn2)cc1 [Compound 4522, 1-(4-(1-(4-(5-(difluoromethyl)-1,3,4-oxadiazol-2-yl)-2-fluorobenzyl)-1H-1,2,3-triazol-4-yl)phenyl)-N,N-dimethylmethanamine] | > 50 |
| CN1CCN(c2cc(-c3cn(Cc4ccc(-c5nnc(C(F)F)o5)cc4F)nn3)ccn2)CC1 [Compound 4633, 2-(difluoromethyl)-5-(3-fluoro-4-((4-(2-(4-methylpiperazin-1-yl)pyridin-4-yl)-1H-1,2,3-triazol-1-yl)methyl)phenyl)-1,3,4-oxadiazole] | > 50 |
| Fc1cc(-c2nnc(C(F)F)o2)ccc1Cn1cc(-c2ccn3ccnc3c2)nn1 [Compound 17198, 2-(difluoromethyl)-5-(3-fluoro-4-((4-(imidazo[1,2-a]pyridin-7-yl)-1H-1,2,3-triazol-1-yl)methyl)phenyl)-1,3,4-oxadiazole] | > 50 |
| CN1CC(c2ccc(-c3cn(Cc4ccc(-c5nnc(C(F)F)o5)cc4F)nn3)cc2)C1 [Compound 17698] | > 50 |
| CN(C)Cc1ccc(-c2cn(Cc3ccc(-c4nnc(C(F)F)o4)cc3F)nn2)s1 [Compound 17914, 1-(5-(1-(4-(5-(difluoromethyl)-1,3,4-oxadiazol-2-yl)-2-fluorobenzyl)-1H-1,2,3-triazol-4-yl)thiophen-2-yl)-N,N-dimethylmethanamine] | > 50 |

Same assay, conditions: human recombinant HDAC1; IC50 calculated with GraphPad Prism; read-out: HDAC1

| SMILES | IC50 [µM] |
| --- | --- |
| Fc1ccc(-c2cn(Cc3ccc(-c4nnc(C(F)F)o4)cc3)nn2)cc1F [Compound 3661, 2-(difluoromethyl)-5-(4-((4-(3,4-difluorophenyl)-1H-1,2,3-triazol-1-yl)methyl)phenyl)-1,3,4-oxadiazole] | > 50 |
| FC(F)c1nnc(-c2ccc(Cn3cc(-c4cn[nH]c4)nn3)nc2)o1 [Compound 3985, 2-(6-((4-(1H-pyrazol-4-yl)-1H-1,2,3-triazol-1-yl)methyl)pyridin-3-yl)-5-(difluoromethyl)-1,3,4-oxadiazole] | > 50 |
| CCN1CCC(c2cccc(-c3cn(Cc4ccc(-c5nnc(C(F)F)o5)cn4)nn3)c2)CC1 [Compound 4011, 2-(difluoromethyl)-5-(6-((4-(3-(1-ethylpiperidin-4-yl)phenyl)-1H-1,2,3-triazol-1-yl)methyl)pyridin-3-yl)-1,3,4-oxadiazole] | > 50 |
| CC(C)(F)C(=O)Nc1cccc(-c2cn(Cc3ccc(-c4nnc(C(F)F)o4)cc3F)nn2)c1 [Compound 4334] | > 50 |
| FC(F)c1nnc(-c2ccc(Cn3cc(-c4ccc5[nH]ncc5c4)nn3)cc2)o1 [Compound 4344, 2-(4-((4-(1H-indazol-5-yl)-1H-1,2,3-triazol-1-yl)methyl)phenyl)-5-(difluoromethyl)-1,3,4-oxadiazole] | > 50 |

Source: patent US20230257372A1 (CHONG KUN DANG PHARMACEUTICAL CORP., priority 2020, published 2023)
